Test results from ChEMBL document CHEMBL1152723, “Remarkable enhancement in the DNA-binding ability of C2-fluoro substituted pyrrolo[2,1-c][1,4]benzodiazepines and their anticancer potential” (2009).

Key:
UACC-62 = assay: Growth inhibition of human UACC62 cells after 48 hrs by sulforhodamine B protein assay; type: functional; settings: UACC-62, 48 h
IGROV-1 = assay: Growth inhibition of human IGROV1 cells after 48 hrs by sulforhodamine B protein assay; type: functional; settings: IGROV-1, 48 h
OVCAR-4 = assay: Growth inhibition of human OVCAR4 cells after 48 hrs by sulforhodamine B protein assay; type: functional; settings: OVCAR-4, 48 h
OVCAR-5 = assay: Growth inhibition of human OVCAR5 cells after 48 hrs by sulforhodamine B protein assay; type: functional; settings: OVCAR-5, 48 h
OVCAR-8 = assay: Growth inhibition of human OVCAR8 cells after 48 hrs by sulforhodamine B protein assay; type: functional; settings: OVCAR-8, 48 h
SK-OV-3 = assay: Growth inhibition of human SKOV3 cells after 48 hrs by sulforhodamine B protein assay; type: functional; settings: SK-OV-3, 48 h
786-0 = assay: Growth inhibition of human 786-0 cells after 48 hrs by sulforhodamine B protein assay; type: functional; settings: 786-0, 48 h
RXF 393 = assay: Growth inhibition of human […] cells after 48 hrs by sulforhodamine B protein assay; type: functional; settings: RXF 393, 48 h
SN12C = assay: Growth inhibition of human SN12C cells after 48 hrs by sulforhodamine B protein assay; type: functional
TK-10 = assay: Growth inhibition of human TK10 cells after 48 hrs by sulforhodamine B protein assay; type: functional; settings: TK-10, 48 h
PC-3 = assay: Growth inhibition of human PC3 cells after 48 hrs by sulforhodamine B protein assay; type: functional; settings: PC-3, 48 h
DU-145 = assay: Growth inhibition of human DU145 cells after 48 hrs by sulforhodamine B protein assay; type: functional; settings: DU-145, 48 h
MCF7 = assay: Growth inhibition of human MCF7 cells after 48 hrs by sulforhodamine B protein assay; type: functional; settings: MCF7, 48 h
NCI/ADR-RES = assay: Growth inhibition of human NCI/ADR-RES cells after 48 hrs by sulforhodamine B protein assay; type: functional
MDA-MB-231 = assay: Growth inhibition of human MDA-MB-231 cells after 48 hrs by sulforhodamine B protein assay; type: functional; settings: MDA-MB-231, 48 h
[1] = Growth inhibition of human Hs 578T cells after 48 hrs by sulforhodamine B protein assay; type: functional
MDA-MB-435 = assay: Growth inhibition of human MDA-MB-435 cells after 48 hrs by sulforhodamine B protein assay; type: functional; settings: MDA-MB-435, 48 h
BT-549 = assay: Growth inhibition of human BT549 cells after 48 hrs by sulforhodamine B protein assay; type: functional; settings: BT-549, 48 h
T47D = assay: Growth inhibition of human T47D cells after 48 hrs by sulforhodamine B protein assay; type: functional
MDA-MB-468 = assay: Growth inhibition of human MDA-MB-468 cells after 48 hrs by sulforhodamine B protein assay; type: functional; settings: MDA-MB-468, 48 h
DNA = assay: Binding affinity to calf thymus DNA assessed as change in melting temperature at a compound to DNA molar ratio of 1:5 at pH 7 by thermal denaturation assay; type: nucleic-acid assay; settings: Bos taurus
[2] = target: T1, Type II restriction enzyme BamHI (Bacillus amyloliquefaciens) (UniProt P23940); assay: Inhibition of Bacillus amyloliquefaciens BamH1-mediated pBR322 cleavage after 16 hrs by RED100-restriction endonuclease digestion assay
T1 sequence (whole entry): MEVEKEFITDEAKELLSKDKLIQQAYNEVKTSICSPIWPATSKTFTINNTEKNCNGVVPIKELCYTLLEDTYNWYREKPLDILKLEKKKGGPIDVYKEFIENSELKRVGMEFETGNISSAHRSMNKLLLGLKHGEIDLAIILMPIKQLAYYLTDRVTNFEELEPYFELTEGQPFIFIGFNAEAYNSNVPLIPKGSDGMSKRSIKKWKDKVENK

HL-60(TB) = assay: Growth inhibition of human HL-60(TB) cells after 48 hrs by sulforhodamine B protein assay; type: functional; settings: HL-60, 48 h
K562 = assay: Growth inhibition of human K562 cells after 48 hrs by sulforhodamine B protein assay; type: functional; settings: K562, 48 h
[3] = Growth inhibition of human […] cells after 48 hrs by sulforhodamine B protein assay; type: functional
SR = assay: Growth inhibition of human SR cells after 48 hrs by sulforhodamine B protein assay; type: functional
A549 = assay: Growth inhibition of human A549 cells after 48 hrs by sulforhodamine B protein assay; type: functional; settings: A549, 48 h
EKVX = assay: Growth inhibition of human EKVX cells after 48 hrs by sulforhodamine B protein assay; type: functional
HOP-62 = assay: Growth inhibition of human HOP62 cells after 48 hrs by sulforhodamine B protein assay; type: functional; settings: HOP-62, 48 h
HOP-92 = assay: Growth inhibition of human HOP92 cells after 48 hrs by sulforhodamine B protein assay; type: functional; settings: HOP-92, 48 h
NCI-H226 = assay: Growth inhibition of human NCI-H226 cells after 48 hrs by sulforhodamine B protein assay; type: functional; settings: NCI-H226, 48 h
NCI-H23 = assay: Growth inhibition of human NCI-H23 cells after 48 hrs by sulforhodamine B protein assay; type: functional; settings: NCI-H23, 48 h
NCI-H322M = assay: Growth inhibition of human NCI-H322M cells after 48 hrs by sulforhodamine B protein assay; type: functional
NCI-H460 = assay: Growth inhibition of human NCI-H460 cells after 48 hrs by sulforhodamine B protein assay; type: functional; settings: NCI-H460, 48 h
COLO 205 = assay: Growth inhibition of human COLO205 cells after 48 hrs by sulforhodamine B protein assay; type: functional; settings: COLO 205, 48 h
HCT-116 = assay: Growth inhibition of human HCT116 cells after 48 hrs by sulforhodamine B protein assay; type: functional; settings: HCT-116, 48 h
HT-29 = assay: Growth inhibition of human HT-29 cells after 48 hrs by sulforhodamine B protein assay; type: functional; settings: HT-29, 48 h
KM12 = assay: Growth inhibition of human KM12 cells after 48 hrs by sulforhodamine B protein assay; type: functional; settings: KM12, 48 h
SF-268 = assay: Growth inhibition of human SF268 cells after 48 hrs by sulforhodamine B protein assay; type: functional; settings: SF-268, 48 h
SNB-19 = assay: Growth inhibition of human SNB19 cells after 48 hrs by sulforhodamine B protein assay; type: functional; settings: SNB-19, 48 h
SNB-75 = assay: Growth inhibition of human SNB75 cells after 48 hrs by sulforhodamine B protein assay; type: functional; settings: SNB-75, 48 h
U-251 = assay: Growth inhibition of human U251 cells after 48 hrs by sulforhodamine B protein assay; type: functional; settings: U-251, 48 h
Malme-3M = assay: Growth inhibition of human MALME-3M cells after 48 hrs by sulforhodamine B protein assay; type: functional
M14 = assay: Growth inhibition of human M14 cells after 48 hrs by sulforhodamine B protein assay; type: functional; settings: M14, 48 h
SK-MEL-28 = assay: Growth inhibition of human SK-MEL-28 cells after 48 hrs by sulforhodamine B protein assay; type: functional; settings: SK-MEL-28, 48 h

With COc1cc2c(cc1OCCCN1CCN(CCCOc3cc4c(cc3OC)C(=O)N3CC(F)C[C@H]3C=N4)CC1)N=C[C@@H]1CC(F)CN1C2=O (stereo not given in full) the GI50 (UACC-62) was less than 0.08 µM, the GI50 (IGROV-1) was less than 0.05 µM and the GI50 (OVCAR-4) was 0.46 µM. The GI50 (OVCAR-5) was 0.16 µM, the GI50 (OVCAR-8) was 0.1 µM and the GI50 (SK-OV-3) was less than 0.07 µM. It also gave a GI50 (786-0) of less than 0.03 µM, a GI50 (RXF 393) of 0.11 µM and a GI50 (SN12C) of less than 0.01 µM. The GI50 (TK-10) was 0.25 µM, the GI50 (PC-3) was 0.01 µM and the GI50 (DU-145) was 0.04 µM. It also gave a GI50 (MCF7) of less than 0.01 µM, a GI50 (NCI/ADR-RES) of 5.25 µM and a GI50 (MDA-MB-231) of 0.13 µM. The GI50 [1] was less than 0.04 µM, the GI50 (MDA-MB-435) was less than 0.03 µM and the GI50 (BT-549) was less than 0.09 µM. The GI50 (T47D) was less than 0.01 µM, the GI50 (MDA-MB-468) was less than 0.01 µM and the ΔTm (DNA) was 37 °C. The Activity [2] was “Dose-dependent effect”, the GI50 (HL-60(TB)) was less than 0.01 µM and the GI50 (K562) was less than 0.01 µM. For the same molecule, the GI50 [3] was less than 0.02 µM, the GI50 (SR) was less than 0.01 µM and the GI50 (A549) was 0.12 µM. It also gave a GI50 (EKVX) of 0.17 µM, a GI50 (HOP-62) of less than 0.01 µM and a GI50 (HOP-92) of less than 0.09 µM. It also gave a GI50 (NCI-H226) of 0.1 µM, a GI50 (NCI-H23) of less than 0.03 µM and a GI50 (NCI-H322M) of 0.26 µM. For the same molecule, the GI50 (NCI-H460) was less than 0.01 µM, the GI50 (COLO 205) was less than 0.04 µM and the GI50 (HCT-116) was less than 0.02 µM. For the same molecule, the GI50 (HT-29) was 0.17 µM, the GI50 (KM12) was 0.1 µM and the GI50 (SF-268) was less than 0.01 µM. It also gave a GI50 (SNB-19) of less than 0.02 µM, a GI50 (SNB-75) of less than 0.03 µM and a GI50 (U-251) of less than 0.01 µM. The GI50 (Malme-3M) was less than 0.02 µM, the GI50 (M14) was less than 0.03 µM and the GI50 (SK-MEL-28) was less than 0.03 µM.
